The text below walks through data of paper PMC4980245 (Environmental and molecular mutagenesis, 2016).

The subject of one data set is male rat kidney. As to conditions: due to α2μ-globulin nephropathy; ref Kirkland et al., 2015; cited from earlier work.
A further data set concerns Phospho-Histone H3. As to the kind of experiment: MultiFlow DNA Damage Kit flow cytometry, phospho-histone H3. As to conditions: TK6 cells with rat liver S9; effect particularly evident at 24 hrs for PhIP. In kind it is cell-based.
For data set [1], the system named is TK6 cells. The data set can be described thus: Cytotoxicity by relative nuclei counts. Format: cell-based. As to conditions: TK6 cells with rat liver S9.
Data set [2] in a line: Precipitation/solubility limit of the top test concentration. The settings on record: for top non-precipitating conc.: precipitation in 100× stock solution or upon addition to culture medium.
For a further data set, the system named is γH2AX. The data set can be described thus: MultiFlow DNA Damage Kit flow cytometry, γH2AX in TK6 cells with rat liver S9. Format: cell-based. As to conditions: 4 hr exposure with 2% rat liver S9.
Another data set concerns p53. In kind it is cell-based. As to conditions: 24 hr time point; TK6 cells, 4 hr exposure with 2% rat liver S9.
The subject of data set [3] is TK6 cells. As to the kind of experiment: MultiFlow flow cytometry, polyploidy. Format: cell-based. The settings on record: TK6 cells with rat liver S9.
A further data set deals with HepG2 cells. As to conditions: cited from earlier work.

In the case of `C=C(C)[C@H]1CC=C(C)CC1` [D-Limonene], the tumor finding entry in the data set on male rat kidney is recorded as “male rat kidney tumors”. Take `CN(C)P(=O)(N(C)C)N(C)C` [Hexamethylphosphoramide]: in the data set with Phospho-Histone H3, the “proportion of mitotic (p-H3 positive) cells” value is “no evidence of cytotoxicity”. The “cytotoxicity (reductions to RNC)” value in the data set on TK6 cells [1] is “no evidence of cytotoxicity”.

Turning to Tunicamycin, the “top conc. due to solubility” value in data set [2] amounted to 500 µM. As to `O=[N+]([O-])c1ccc2c(c1)Cc1ccccc1-2` [2-Nitrofluorene], the γH2AX-associated fluorescence response result was “robust responses” in the data set on γH2AX (4 hr time point) and “considerably reduced” in the data set on γH2AX (24 hr time point). `Nc1ccc2cc3ccccc3cc2c1` [2-Aminoanthracene] showed a top non-precipitating conc. in data set [2] of 500 µM. Turning to `Cn1c(N)nc2ncc(-c3ccccc3)cc21` [2-amino-1-methyl-6-phenylimidazo [4,5-b]pyridine], the γH2AX-associated fluorescence response entry in the data set on γH2AX (4 hr time point) and with γH2AX (24 hr time point) was “concentration-related increases” in each case. Also, the p53 response entry in the data set with p53 was “higher p53 responses at 24 hr relative to the 4 hr time point”. In addition, the “proportion of mitotic (p-H3 positive) cells” value in the data set with Phospho-Histone H3 was “concentration-dependent reductions”. Further, the polyploid cells result in the data set on TK6 cells [3] was “not induced”. In addition, in data set [2], the top non-precipitating conc. amounted to 250 µM. `c1ccc2c(c1)cc1ccc3cccc4ccc2c1c34` [Benzo[a]pyrene] displayed a top non-precipitating conc. in data set [2] of 250 µM. On to `Cc1cc2ncccc2c2nc(N)n(C)c12` [3,4-Dimethylimidazo[4,5-f]quinolin-2-amine], for which, in the data set on HepG2 cells, the “induction of MN in HepG2 cells” value is recorded as “weak inducer”. In turn, `CC(=O)Nc1ccc2c(c1)Cc1ccccc1-2` [2-Acetylaminofluorene] yielded a top non-precipitating conc. in data set [2] of 250 µM. With `CCN(CC)N=O` [N-Nitrosodiethylamine (DEN), N-Nitrosodiethylamine], the “proportion of mitotic (p-H3 positive) cells” value with Phospho-Histone H3 is recorded as “no evidence of cytotoxicity”. Besides, the “cytotoxicity (reductions to RNC)” value with TK6 cells [1] is listed as “no evidence of cytotoxicity”.
